Literature values in US20060006323A1, “Method and an apparatus for evaluating toxicity of chemical agents” (priority 2004, published 2006).

Experiments:
[1] = toxicity intensity relative to 2,3,7,8-TCDD set to be 1; cited from earlier work
AhR = biological target: T1, AhR (Homo sapiens, UniProt P35869); conditions: published by Matsui et al. 2002, HPLC bioassay; cited from earlier work
T1 sequence (P35869 11-848): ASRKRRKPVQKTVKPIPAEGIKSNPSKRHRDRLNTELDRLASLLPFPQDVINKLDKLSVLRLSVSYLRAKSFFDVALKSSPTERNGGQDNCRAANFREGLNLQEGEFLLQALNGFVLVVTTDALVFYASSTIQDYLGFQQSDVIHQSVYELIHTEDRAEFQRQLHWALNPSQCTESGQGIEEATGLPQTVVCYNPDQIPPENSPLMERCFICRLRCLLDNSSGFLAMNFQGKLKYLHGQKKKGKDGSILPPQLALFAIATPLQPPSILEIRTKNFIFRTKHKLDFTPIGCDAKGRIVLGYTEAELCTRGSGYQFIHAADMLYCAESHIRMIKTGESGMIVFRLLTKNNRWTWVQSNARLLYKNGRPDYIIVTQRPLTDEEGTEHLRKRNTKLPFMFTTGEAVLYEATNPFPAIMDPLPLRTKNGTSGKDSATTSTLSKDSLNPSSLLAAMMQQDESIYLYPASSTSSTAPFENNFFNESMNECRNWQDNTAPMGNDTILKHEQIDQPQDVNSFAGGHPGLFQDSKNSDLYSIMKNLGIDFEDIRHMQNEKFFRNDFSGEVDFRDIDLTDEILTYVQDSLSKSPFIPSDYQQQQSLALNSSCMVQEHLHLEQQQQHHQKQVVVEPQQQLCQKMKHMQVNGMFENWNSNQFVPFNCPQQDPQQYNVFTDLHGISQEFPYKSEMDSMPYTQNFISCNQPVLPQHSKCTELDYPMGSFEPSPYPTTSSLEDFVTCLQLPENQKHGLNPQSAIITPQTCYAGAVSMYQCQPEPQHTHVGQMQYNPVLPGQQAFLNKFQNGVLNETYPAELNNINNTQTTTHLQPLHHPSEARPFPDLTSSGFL

[2] = reported toxicity; cited from earlier work

| Compound | WHO-TEF [1] | affinity with AhR (AhR) | toxicity [2] |
| --- | --- | --- | --- |
| Clc1cc2c(c(Cl)c1Cl)Oc1cc(Cl)c(Cl)c(Cl)c1O2 [1,2,3,6,7,8-HxCDD] | 0.1 |  |  |
| O=C1/C(=C2\Nc3ccccc3C2=O)Nc2ccccc21 [indigo] |  | strong affinity | comparatively low |
| Clc1cc2c(cc1Cl)Oc1c(cc(Cl)c(Cl)c1Cl)O2 [1,2,3,7,8-PeCDD] | 1 |  |  |
| Clc1c(Cl)c(Cl)c2c(c1Cl)Oc1ccccc1O2 [1,2,3,4-TCDD] |  |  | without any reported toxicity |
| Clc1c(Cl)c(Cl)c2c(c1Cl)Oc1c(Cl)c(Cl)c(Cl)c(Cl)c1O2 [OCDD] | 0.0001 |  |  |
| Clc1cc2c(cc1Cl)Oc1cc(Cl)c(Cl)cc1O2 [2,3,7,8-TCDD] | 1 |  |  |
| Clc1cc2c(cc1Cl)Oc1c(Cl)c(Cl)c(Cl)c(Cl)c1O2 [1,2,3,4,7,8-HxCDD] | 0.1 |  |  |
| Clc1cc2c(c(Cl)c1Cl)Oc1c(cc(Cl)c(Cl)c1Cl)O2 [1,2,3,7,8,9-HxCDD] | 0.1 |  |  |
